The record followed here is paper PMC5218480 (PLoS ONE, 2017).

The test system of this assay is MV-4-11 cells. The assay can be described thus: Gene expression microarray analysis (Affymetrix PrimeView) and GSEA. Particulars: MV-4-11 cells, 48 hours. Type of assay: cell-based, human. Set-up: RFU PODN (11730768_x_at) / Fold change /veh PODN (11730768_x_at) / RFU LINC00158 (11744669_a_at) / Fold change /veh LINC00158 (11744669_a_at) / RFU DUSP10 (11751237_a_at) / Fold change /veh DUSP10 (11751237_a_at) / RFU ID3 (11757404_x_at) / Fold change /veh ID3 (11757404_x_at) / RFU PLEKHG5 (11737974_s_at) / Fold change /veh PLEKHG5 (11737974_s_at) / RFU LRRC4B (11730491_at) / Fold change /veh LRRC4B (11730491_at) / RFU GIMAP4 (11747438_a_at) / Fold change /veh GIMAP4 (11747438_a_at) / RFU KRT8 (11758183_x_at) / Fold change /veh KRT8 (11758183_x_at) / RFU CNN1 (11734310_a_at) / Fold change /veh CNN1 (11734310_a_at) / RFU VPS37D (11726825_at) / Fold change /veh VPS37D (11726825_at) / RFU C10orf10 (11716522_x_at) / Fold change /veh C10orf10 (11716522_x_at) / RFU KIR2DL2 /// KIR2DL4 /// KIR2DL5A /// KIR2DL5B /// KIR2DS1 /// KIR2DS2 /// KIR2DS3 /// KIR2DS4 /// KIR3DL3 /// KIR3DL3 /// KIR3DS1 (11738374_at) / Fold change /veh KIR2DL2 /// KIR2DL4 /// KIR2DL5A /// KIR2DL5B /// KIR2DS1 /// KIR2DS2 /// KIR2DS3 /// KIR2DS4 /// KIR3DL3 /// KIR3DL3 /// KIR3DS1 (11738374_at) / RFU C1QL1 (11718748_at) / Fold change /veh C1QL1 (11718748_at) / RFU TMPRSS4 (11747572_a_at) / Fold change /veh TMPRSS4 (11747572_a_at) / RFU HAMP (11756126_x_at) / Fold change /veh HAMP (11756126_x_at) / RFU RNFT2 (11725882_a_at) / Fold change /veh RNFT2 (11725882_a_at) / RFU NR4A2 (11747474_a_at) / Fold change /veh NR4A2 (11747474_a_at) / RFU ABCC12 (11746883_a_at) / Fold change /veh ABCC12 (11746883_a_at) / RFU TMEM136 (11760407_x_at) / Fold change /veh TMEM136 (11760407_x_at) / RFU CLDN22 /// WWC2 (11732394_at) / Fold change /veh CLDN22 /// WWC2 (11732394_at) / RFU HLA-DPB1 (11760878_x_at) / Fold change /veh HLA-DPB1 (11760878_x_at) / RFU SPINT1 (11716480_a_at) / Fold change /veh SPINT1 (11716480_a_at) / RFU GAP43 (11754022_s_at) / Fold change /veh GAP43 (11754022_s_at) / RFU A4GNT (11735810_at) / Fold change /veh A4GNT (11735810_at) / RFU PRB3 (11715151_x_at) / Fold change /veh PRB3 (11715151_x_at) / RFU TUBB4B (11761932_at) / Fold change /veh TUBB4B (11761932_at) / RFU CAPN14 (11732068_a_at) / Fold change /veh CAPN14 (11732068_a_at) / RFU TMCC2 (11721928_a_at) / Fold change /veh TMCC2 (11721928_a_at) / RFU IRGQ (11745062_a_at) / Fold change /veh IRGQ (11745062_a_at) / RFU FAM174B (11720279_a_at) / Fold change /veh FAM174B (11720279_a_at) / RFU TMPRSS4 (11748680_a_at) / Fold change /veh TMPRSS4 (11748680_a_at) / RFU FAM212B (11763350_a_at) / Fold change /veh FAM212B (11763350_a_at) / RFU PLEKHG5 (11743358_a_at) / Fold change /veh PLEKHG5 (11743358_a_at) / RFU ZSCAN30 (11745921_a_at) / Fold change /veh ZSCAN30 (11745921_a_at) / RFU CMKLR1 (11741424_a_at) / Fold change /veh CMKLR1 (11741424_a_at) / RFU LOC101060620 /// MAPK8IP1 (11723275_at) / Fold change /veh LOC101060620 /// MAPK8IP1 (11723275_at) / RFU SPTSSB (11747773_x_at) / Fold change /veh SPTSSB (11747773_x_at) / RFU PRSS12 (11739890_at) / Fold change /veh PRSS12 (11739890_at) / RFU BIN1 (11741810_x_at) / Fold change /veh BIN1 (11741810_x_at) / RFU WNT11 (11732464_a_at) / Fold change /veh WNT11 (11732464_a_at) / RFU C10orf10 (11716521_a_at) / Fold change /veh C10orf10 (11716521_a_at) / RFU C5orf56 (11738089_at) / Fold change /veh C5orf56 (11738089_at) / RFU CYB561 (11721691_x_at) / Fold change /veh CYB561 (11721691_x_at) / RFU ANKRD19P (11752326_a_at) / Fold change /veh ANKRD19P (11752326_a_at) / RFU OR2T12 /// OR2T33 /// OR2T8 (11738714_s_at) / Fold change /veh OR2T12 /// OR2T33 /// OR2T8 (11738714_s_at) / RFU VCAN (11748164_a_at) / Fold change /veh VCAN (11748164_a_at) / RFU JSRP1 (11732532_at) / Fold change /veh JSRP1 (11732532_at) / RFU KRTAP10-11 (11738290_x_at) / Fold change /veh KRTAP10-11 (11738290_x_at) / RFU MYO3A (11730013_a_at) / Fold change /veh MYO3A (11730013_a_at) / RFU EBF3 (11725865_a_at) / Fold change /veh EBF3 (11725865_a_at) / RFU CAMK2N1 (11719241_x_at) / Fold change /veh CAMK2N1 (11719241_x_at) / RFU C5orf56 (11738088_a_at) / Fold change /veh C5orf56 (11738088_a_at) / RFU OLFML3 (11715873_a_at) / Fold change /veh OLFML3 (11715873_a_at) / RFU LOC100653217 /// NTM (11731650_a_at) / Fold change /veh LOC100653217 /// NTM (11731650_a_at) / RFU MAPK11 (11762145_a_at) / Fold change /veh MAPK11 (11762145_a_at) / RFU FIZ1 (11724087_x_at) / Fold change /veh FIZ1 (11724087_x_at) / RFU OASL (11726364_x_at) / Fold change /veh OASL (11726364_x_at) / RFU SOX15 (11748057_x_at) / Fold change /veh SOX15 (11748057_x_at) / RFU CD79A (11719716_a_at) / Fold change /veh CD79A (11719716_a_at) / RFU HIST1H1D (11736915_at) / Fold change /veh HIST1H1D (11736915_at) / RFU CASKIN2 (11723855_a_at) / Fold change /veh CASKIN2 (11723855_a_at) / RFU LOC730098 (11760151_x_at) / Fold change /veh LOC730098 (11760151_x_at) / RFU OR4N2 (11742367_at) / Fold change /veh OR4N2 (11742367_at) / RFU PRRT2 (11749266_a_at) / Fold change /veh PRRT2 (11749266_a_at) / RFU SNX32 (11753110_a_at) / Fold change /veh SNX32 (11753110_a_at) / RFU CDHR5 (11726645_a_at) / Fold change /veh CDHR5 (11726645_a_at) / RFU RCAN1 (11760418_a_at) / Fold change /veh RCAN1 (11760418_a_at) / RFU FAM167A (11723789_a_at) / Fold change /veh FAM167A (11723789_a_at) / RFU FAM26E (11764081_at) / Fold change /veh FAM26E (11764081_at) / RFU ISYNA1 (11749810_s_at) / Fold change /veh ISYNA1 (11749810_s_at) / RFU ACY1 (11761880_at) / Fold change /veh ACY1 (11761880_at) / RFU 11764098_at / Fold change /veh 11764098_at / RFU SAMD14 (11745864_x_at) / Fold change /veh SAMD14 (11745864_x_at) / RFU NPB (11741838_a_at) / Fold change /veh NPB (11741838_a_at) / RFU TMPRSS6 (11731388_a_at) / Fold change /veh TMPRSS6 (11731388_a_at) / RFU KRTAP10-2 (11738614_at) / Fold change /veh KRTAP10-2 (11738614_at) / RFU ARHGAP8 /// PRR5-ARHGAP8 (11727945_x_at) / Fold change /veh ARHGAP8 /// PRR5-ARHGAP8 (11727945_x_at) / RFU KRTAP5-7 /// NADSYN1 (11734609_at) / Fold change /veh KRTAP5-7 /// NADSYN1 (11734609_at) / RFU RASL12 (11751679_a_at) / Fold change /veh RASL12 (11751679_a_at) / RFU CDKN2B (11736163_a_at) / Fold change /veh CDKN2B (11736163_a_at) / RFU PRF1 (11729649_at) / Fold change /veh PRF1 (11729649_at) / RFU, ZNF638 /// ZNF638-IT1 / Fold change vs veh, ZNF638 /// ZNF638-IT1 / RFU, PANK3 / Fold change vs veh, PANK3 / RFU, SH3YL1 / Fold change vs veh, SH3YL1 / RFU, ZEB2 / Fold change vs veh, ZEB2 / RFU, NRIP1 / Fold change vs veh, NRIP1 / RFU, PTTG1IP / Fold change vs veh, PTTG1IP / RFU, CAPN2 / Fold change vs veh, CAPN2 / RFU, MED14 / Fold change vs veh, MED14 / RFU, SNORA58 / Fold change vs veh, SNORA58 / RFU, C1orf63 / Fold change vs veh, C1orf63 / RFU, LRRFIP1 / Fold change vs veh, LRRFIP1 / RFU, NDUFAF7 / Fold change vs veh, NDUFAF7 / RFU, SLC12A2 / Fold change vs veh, SLC12A2 / RFU, IBTK / Fold change vs veh, IBTK / RFU, ESF1 / Fold change vs veh, ESF1 / Fold change vs veh, TMEM50B / RFU, TAOK1 / Fold change vs veh, TAOK1 / RFU, ACBD3 / Fold change vs veh, ACBD3 / RFU, TMA16 / Fold change vs veh, TMA16 / RFU, RWDD3 / Fold change vs veh, RWDD3 / RFU, BCAT1 / Fold change vs veh, BCAT1 / RFU, EDEM3 / Fold change vs veh, EDEM3 / RFU, TMEM33 / Fold change vs veh, TMEM33 / RFU, WDR75 / Fold change vs veh, WDR75 / RFU, AHCTF1 / Fold change vs veh, AHCTF1 / RFU, TFRC / Fold change vs veh, TFRC / RFU, ZDHHC17 / Fold change vs veh, ZDHHC17 / RFU, NOM1 / Fold change vs veh, NOM1 / RFU, ARL8B / Fold change vs veh, ARL8B / RFU, ZBTB11 / Fold change vs veh, ZBTB11 / RFU, TAMM41 / Fold change vs veh, TAMM41 / RFU, KIAA1704 /// LOC100996395 / Fold change vs veh, KIAA1704 /// LOC100996395 / RFU, ING1 / Fold change vs veh, ING1 / RFU, TRMT61B / Fold change vs veh, TRMT61B / RFU, FUBP3 / Fold change vs veh, FUBP3 / RFU, TP53 / Fold change vs veh, TP53 / RFU, TNKS2 / Fold change vs veh, TNKS2 / RFU, ZFP14 / Fold change vs veh, ZFP14 / RFU, ACTR2 / Fold change vs veh, ACTR2 / RFU, PPP3R1 / Fold change vs veh, PPP3R1 / RFU, PIK3R1 / Fold change vs veh, PIK3R1 / RFU, HNRNPA1 / Fold change vs veh, HNRNPA1 / RFU, RNF170 / Fold change vs veh, RNF170 / RFU, ZNF28 / Fold change vs veh, ZNF28 / RFU, RNGTT / Fold change vs veh, RNGTT / RFU, OGT / Fold change vs veh, OGT / RFU, BRD1 / Fold change vs veh, BRD1 / RFU, MARS / Fold change vs veh, MARS / RFU, ZNF655 / Fold change vs veh, ZNF655 / RFU, FAHD1 / Fold change vs veh, FAHD1 / RFU, BDP1 / Fold change vs veh, BDP1 / RFU, LRRCC1 / Fold change vs veh, LRRCC1 / RFU, ARID1A / Fold change vs veh, ARID1A / RFU, ZNF146 / Fold change vs veh, ZNF146 / RFU, ZNF330 / Fold change vs veh, ZNF330 / RFU, GPN3 / Fold change vs veh, GPN3 / RFU, C9orf123 / Fold change vs veh, C9orf123 / RFU, N4BP2L2 / Fold change vs veh, N4BP2L2 / RFU, ARFIP1 / Fold change vs veh, ARFIP1 / RFU, FAM179B / Fold change vs veh, FAM179B / RFU, BCL10 / Fold change vs veh, BCL10 / RFU, UHRF1BP1L / Fold change vs veh, UHRF1BP1L / RFU, BET1 / Fold change vs veh, BET1 / RFU, CNOT2 / Fold change vs veh, CNOT2 / RFU, ZNF268 / Fold change vs veh, ZNF268 / Fold change vs veh, ZNF507 / RFU, DGCR2 / Fold change vs veh, DGCR2 / RFU, WDSUB1 / Fold change vs veh, WDSUB1 / Fold change vs veh, HSP90B1 /// MIR3652 / RFU, ADSS / Fold change vs veh, ADSS / RFU, GK / Fold change vs veh, GK / RFU, ZNF148 / Fold change vs veh, ZNF148 / RFU, TAF9 / Fold change vs veh, TAF9 / RFU, SLC1A5 / Fold change vs veh, SLC1A5 / RFU, SLMO2 / Fold change vs veh, SLMO2 / RFU, ABCC4 / Fold change vs veh, ABCC4 / RFU, LOC101060439 /// RAP1B / Fold change vs veh, LOC101060439 /// RAP1B / RFU, RFX7 / Fold change vs veh, RFX7 / RFU, GTPBP10 / Fold change vs veh, GTPBP10 / RFU, CNEP1R1 / Fold change vs veh, CNEP1R1 / RFU, BIVM-ERCC5 /// ERCC5 / Fold change vs veh, BIVM-ERCC5 /// ERCC5 / RFU, ILF3 / Fold change vs veh, ILF3 / RFU 11762660_at / Fold change /veh 11762660_at / RFU VCAN (11757783_s_at) / Fold change /veh VCAN (11757783_s_at) / RFU DDX43 (11728927_at) / Fold change /veh DDX43 (11728927_at) / RFU KRT8 (11758188_x_at) / Fold change /veh KRT8 (11758188_x_at) / RFU NKD1 (11759106_at) / Fold change /veh NKD1 (11759106_at) / RFU SRD5A1 (11742802_a_at) / Fold change /veh SRD5A1 (11742802_a_at) / RFU TPSAB1 /// TPSB2 (11721975_s_at) / Fold change /veh TPSAB1 /// TPSB2 (11721975_s_at) / RFU GSTM3 (11746129_a_at) / Fold change /veh GSTM3 (11746129_a_at) / RFU IL23R (11737362_x_at) / Fold change /veh IL23R (11737362_x_at) / RFU TMEM51 (11727254_a_at) / Fold change /veh TMEM51 (11727254_a_at) / RFU PIWIL2 (11732686_x_at) / Fold change /veh PIWIL2 (11732686_x_at) / RFU ORM1 (11744905_x_at) / Fold change /veh ORM1 (11744905_x_at) / RFU CCDC152 (11743942_at) / Fold change /veh CCDC152 (11743942_at) / RFU ECM1 (11717891_a_at) / Fold change /veh ECM1 (11717891_a_at) / RFU IL23R (11748794_a_at) / Fold change /veh IL23R (11748794_a_at) / RFU TNFAIP8L3 (11732012_x_at) / Fold change /veh TNFAIP8L3 (11732012_x_at) / RFU MBOAT4 (11741988_at) / Fold change /veh MBOAT4 (11741988_at) / RFU 11764193_at / Fold change /veh 11764193_at / RFU TMEM53 (11763286_at) / Fold change /veh TMEM53 (11763286_at) / RFU MAGEB2 (11727129_at) / Fold change /veh MAGEB2 (11727129_at) / RFU TMEM200A (11744735_a_at) / Fold change /veh TMEM200A (11744735_a_at) / RFU CCDC152 (11751479_a_at) / Fold change /veh CCDC152 (11751479_a_at) / RFU FAM211A (11726209_a_at) / Fold change /veh FAM211A (11726209_a_at) / RFU RGS16 (11746705_a_at) / Fold change /veh RGS16 (11746705_a_at) / RFU VCAN (11755009_s_at) / Fold change /veh VCAN (11755009_s_at) / RFU RHOB (11743442_s_at) / Fold change /veh RHOB (11743442_s_at) / RFU RGS16 (11720943_a_at) / Fold change /veh RGS16 (11720943_a_at) / RFU RGS16 (11720944_at) / Fold change /veh RGS16 (11720944_at) / RFU, VPS4B / Fold change vs veh, VPS4B / RFU, CREB1 / Fold change vs veh, CREB1 / RFU, DNAJC13 / Fold change vs veh, DNAJC13 / RFU, GNAQ / Fold change vs veh, GNAQ / RFU, CDK5R1 / Fold change vs veh, CDK5R1 / RFU, ZRANB3 / Fold change vs veh, ZRANB3 / RFU, CUL4A / Fold change vs veh, CUL4A / RFU, CCNY / Fold change vs veh, CCNY / RFU, UFL1 / Fold change vs veh, UFL1 / RFU, COG3 / Fold change vs veh, COG3 / RFU, DIAPH2 / Fold change vs veh, DIAPH2 / RFU, SKA2 / Fold change vs veh, SKA2 / RFU, AFF3 / Fold change vs veh, AFF3 / RFU, LMF1 / Fold change vs veh, LMF1 / RFU, IPO11 / Fold change vs veh, IPO11 / RFU, DFFB / Fold change vs veh, DFFB / RFU, FOXP1 / Fold change vs veh, FOXP1 / RFU, CARD8 / Fold change vs veh, CARD8 / RFU, STRN3 / Fold change vs veh, STRN3 / RFU, ADK / Fold change vs veh, ADK / RFU, RASSF2 / Fold change vs veh, RASSF2 / RFU, WIPF1 / Fold change vs veh, WIPF1 / RFU, LARP1B / Fold change vs veh, LARP1B / RFU, RASA1 / Fold change vs veh, RASA1 / RFU, RB1 / Fold change vs veh, RB1 / RFU, PPFIA1 / Fold change vs veh, PPFIA1 / RFU, MAT2A / Fold change vs veh, MAT2A / RFU, CCT5 / Fold change vs veh, CCT5 / RFU, WDR92 / Fold change vs veh, WDR92 / RFU, CUX1 / Fold change vs veh, CUX1 / RFU, TTC7A / Fold change vs veh, TTC7A / RFU, TMEM135 / Fold change vs veh, TMEM135 / RFU, DEPTOR / Fold change vs veh, DEPTOR / RFU, CPM / Fold change vs veh, CPM / RFU, DNAJB6 / Fold change vs veh, DNAJB6 / RFU, CACNA2D3 / Fold change vs veh, CACNA2D3 / RFU, DTX4 / Fold change vs veh, DTX4 / RFU, TFCP2 / Fold change vs veh, TFCP2 / RFU, GMCL1 /// GMCL1P1 / Fold change vs veh, GMCL1 /// GMCL1P1 / RFU, AEBP2 / Fold change vs veh, AEBP2 / RFU, SNHG1 /// SNORD22 /// SNORD25 /// SNORD26 /// SNORD27 /// SNORD28 /// SNORD29 /// SNORD31 / Fold change vs veh, SNHG1 /// SNORD22 /// SNORD25 /// SNORD26 /// SNORD27 /// SNORD28 /// SNORD29 /// SNORD31 / Fold change (Aza/veh), C12orf56 (ProbeSet 11735607_a_at) / Fold change (ACY-1035/veh), C12orf56 (ProbeSet 11735607_a_at) / Fold change (Aza/veh), FGFR1OP (ProbeSet 11751329_s_at) / Fold change (ACY-1035/veh), FGFR1OP (ProbeSet 11751329_s_at) / Fold change (Aza/veh), VPS36 (ProbeSet 11739960_a_at) / Fold change (ACY-1035/veh), VPS36 (ProbeSet 11739960_a_at) / RFU SYPL1 (11715823_x_at) / Fold change /veh SYPL1 (11715823_x_at) / RFU IGFBP7 (11715501_s_at) / Fold change /veh IGFBP7 (11715501_s_at) / RFU REEP3 (11722064_at) / Fold change /veh REEP3 (11722064_at) / RFU IGLL1 (11728026_x_at) / Fold change /veh IGLL1 (11728026_x_at): dose or concentration left out as unconfirmed.

Regarding `Nc1ncn([C@@H]2O[C@H](CO)[C@@H](O)[C@H]2O)c(=O)n1` [azacitidine], the “Fold change /veh TMCC2 (11721928_a_at)” value is listed as 0.97.
